We go through ten compounds from patent publication US10265411B2, “N-optionally substituted aryl-2-oligomer-3-alkoxypropionamides” (Nektar Therapeutics, priority 2010, dated 2019).

Read-outs that look alike come from different tables or passages of the source.

The target in series [1] is T1, cloned hNav1.8 channels expressed in CHO cells (Homo sapiens, UniProt Q9Y5Y9).
T1 construct: expressed in transfected cells
Put plainly: Na+ channel blocking examination, automated whole-cell patch clamp (IonWorks Quattro). It counts as cell-based. The following applies: for IC50: hNav1.8 in CHO cells; for block of hNav1.8 channels in the inactivated state, potency relative to control (lacosamide): in words. As to the method: Using an automated whole-cell patch-clamp approach, the in vitro effects of oligomer-containing compounds of the invention (synthesis described in Example 1) on cloned hNav1.8 channels expressed in CHO cells relative to control (lacosamide) were evaluated.
The procedures used in this experiment followed those set forth in Sheets et al. (2008) J Pharmacol Exp Ther 326(1):89-99. Briefly, automated patch clamp electrophysiological procedures were carried out in the IonWorks Quattro™ system (Molecular Devices Corporation, Union City Calif.). In preparation for a current recording session, intracellular solution (140 mM KCl, 5 mM MgCl2, 0.5 mM EGTA, 10 mM HEPES, 0.1 mg/mL amphotericin B) was loaded into the intracellular compartment of the Population Patch Clamp™ (PPC) planar electrode. CHO cells stably expressing the human Nav1.8 sodium channel subtype were suspended in HEPES-buffered physiological saline solution (137 mM NaCl, 4 mM KCl, 1.8 mM CaCl2, 1 mM MgCl2, 10 mM HEPES, 10 mM Glucose, pH adjusted to 7.4 with NaOH) and pipetted into the wells of the PPC planar electrode. After establishment of a whole-cell configuration (the perforated patch), membrane currents were recorded using patch clamp amplifier in the IonWorks Quattro™ system. Test article concentrations, loaded in a 384-well compound plate, were applied to naïve cells (one concentration per cell) via steel needles of a 48-channel pipettor. Each application consisted of addition of 6 μL of 2× concentrated test article solution to the total 12 μL final volume of the extracellular well of the PPC planar electrode. The PPC well contents were then mixed (three times) following addition of test article. All experiments were performed at ambient temperature.
Block of hNav1.8 sodium channel was measured using a stimulus voltage pattern shown in FIG. 1, and voltage potentials are indicated in Table 1. The pulse pattern was repeated twice (once before addition of test article and the other five minutes after test article addition). Peak current amplitudes were measured at three test pulses: TP1 (tonic block), TP11 (frequency-dependent block at 10 Hz), and TP12 (inactivated state block).
Data acquisition and analyses were performed using the IonWorks Quattro™ system operation software (version 2.0.2; Molecular Devices Corporation, Union City, Calif.). Inhibition potencies were estimated from concentration-response curves fitted using the Hill function: % Block=% VC+{(100−% VC)−(100−% VC)/[1+([Test]/IC50)^N]}, where [Test] is the concentration of test article, IC50 is the concentration of the test article producing half-maximal inhibition, N is the Hill coefficient, % VC is the percentage of the current run-down (the mean current inhibition at the vehicle control) and % Block is the percentage of ion channel current inhibited at each concentration of the test article.
In general terms: In patch-clamp work, channel activity is measured electrically.

Series [2] relates to formalin-induced paw licking in the mouse. Put plainly: Pain model: formalin-induced paw licking in the mouse. It counts as in vivo. The following applies: for formalin-induced paw licking compared to saline, Phase 2: dose 200, PO, Phase 2 (15-30 minutes); for mice sedated / mice with splayed posture: 200 mg/kg orally. As for the experimental part:
In the formalin-induced paw licking model, a test compound is administered via oral gavage (“PO”) followed in thirty minutes by the subcutaneous injection of formalin to a hind paw of a mouse. Subcutaneous injection of formalin first causes a pain-inducing mechanical injury (involving bradykinin and substance P) in the first five minutes (“Phase 1”) followed by a pain-inducing inflammatory response (involving bradykinin, histamine, serotonin and prostaglandins) occurring between 15-30 minutes (“Phase 2”) following the formalin injection. Both pain-inducing stimuli causes a characteristic “paw licking” response. The amount of time spent licking the formalin-injected paw is measured during Phase 1 and Phase 2. If the test article has relatively good pain reducing properties, a reduction in the time spent licking the formalin-injected paw is observed compared to the saline control group. […] By measuring a series of test articles, it is possible to understand each test article's pain reducing activity relative to each other.

A short description of series [3]: Solubility of test articles in dosing vehicle 0.5% CMC. The class given is physicochemical. The following applies: 0.5% CMC (carboxymethylcellulose).
The mark [4] stands for this setting: test pulse TP1 (tonic block), 5 min after test article addition, read-out: IC50, type of block: Tonic.
[5] abbreviates: test pulse TP11 (frequency-dependent block at 10 Hz), read-out: IC50, type of block: 10 Hz.
The mark [6] stands for this setting: test pulse TP12 (inactivated state block), read-out: IC50, type of block: Inactivated state.
Where [7] appears, read: 30 min before formalin, in words.

T1 sequence (Q9Y5Y9 whole entry): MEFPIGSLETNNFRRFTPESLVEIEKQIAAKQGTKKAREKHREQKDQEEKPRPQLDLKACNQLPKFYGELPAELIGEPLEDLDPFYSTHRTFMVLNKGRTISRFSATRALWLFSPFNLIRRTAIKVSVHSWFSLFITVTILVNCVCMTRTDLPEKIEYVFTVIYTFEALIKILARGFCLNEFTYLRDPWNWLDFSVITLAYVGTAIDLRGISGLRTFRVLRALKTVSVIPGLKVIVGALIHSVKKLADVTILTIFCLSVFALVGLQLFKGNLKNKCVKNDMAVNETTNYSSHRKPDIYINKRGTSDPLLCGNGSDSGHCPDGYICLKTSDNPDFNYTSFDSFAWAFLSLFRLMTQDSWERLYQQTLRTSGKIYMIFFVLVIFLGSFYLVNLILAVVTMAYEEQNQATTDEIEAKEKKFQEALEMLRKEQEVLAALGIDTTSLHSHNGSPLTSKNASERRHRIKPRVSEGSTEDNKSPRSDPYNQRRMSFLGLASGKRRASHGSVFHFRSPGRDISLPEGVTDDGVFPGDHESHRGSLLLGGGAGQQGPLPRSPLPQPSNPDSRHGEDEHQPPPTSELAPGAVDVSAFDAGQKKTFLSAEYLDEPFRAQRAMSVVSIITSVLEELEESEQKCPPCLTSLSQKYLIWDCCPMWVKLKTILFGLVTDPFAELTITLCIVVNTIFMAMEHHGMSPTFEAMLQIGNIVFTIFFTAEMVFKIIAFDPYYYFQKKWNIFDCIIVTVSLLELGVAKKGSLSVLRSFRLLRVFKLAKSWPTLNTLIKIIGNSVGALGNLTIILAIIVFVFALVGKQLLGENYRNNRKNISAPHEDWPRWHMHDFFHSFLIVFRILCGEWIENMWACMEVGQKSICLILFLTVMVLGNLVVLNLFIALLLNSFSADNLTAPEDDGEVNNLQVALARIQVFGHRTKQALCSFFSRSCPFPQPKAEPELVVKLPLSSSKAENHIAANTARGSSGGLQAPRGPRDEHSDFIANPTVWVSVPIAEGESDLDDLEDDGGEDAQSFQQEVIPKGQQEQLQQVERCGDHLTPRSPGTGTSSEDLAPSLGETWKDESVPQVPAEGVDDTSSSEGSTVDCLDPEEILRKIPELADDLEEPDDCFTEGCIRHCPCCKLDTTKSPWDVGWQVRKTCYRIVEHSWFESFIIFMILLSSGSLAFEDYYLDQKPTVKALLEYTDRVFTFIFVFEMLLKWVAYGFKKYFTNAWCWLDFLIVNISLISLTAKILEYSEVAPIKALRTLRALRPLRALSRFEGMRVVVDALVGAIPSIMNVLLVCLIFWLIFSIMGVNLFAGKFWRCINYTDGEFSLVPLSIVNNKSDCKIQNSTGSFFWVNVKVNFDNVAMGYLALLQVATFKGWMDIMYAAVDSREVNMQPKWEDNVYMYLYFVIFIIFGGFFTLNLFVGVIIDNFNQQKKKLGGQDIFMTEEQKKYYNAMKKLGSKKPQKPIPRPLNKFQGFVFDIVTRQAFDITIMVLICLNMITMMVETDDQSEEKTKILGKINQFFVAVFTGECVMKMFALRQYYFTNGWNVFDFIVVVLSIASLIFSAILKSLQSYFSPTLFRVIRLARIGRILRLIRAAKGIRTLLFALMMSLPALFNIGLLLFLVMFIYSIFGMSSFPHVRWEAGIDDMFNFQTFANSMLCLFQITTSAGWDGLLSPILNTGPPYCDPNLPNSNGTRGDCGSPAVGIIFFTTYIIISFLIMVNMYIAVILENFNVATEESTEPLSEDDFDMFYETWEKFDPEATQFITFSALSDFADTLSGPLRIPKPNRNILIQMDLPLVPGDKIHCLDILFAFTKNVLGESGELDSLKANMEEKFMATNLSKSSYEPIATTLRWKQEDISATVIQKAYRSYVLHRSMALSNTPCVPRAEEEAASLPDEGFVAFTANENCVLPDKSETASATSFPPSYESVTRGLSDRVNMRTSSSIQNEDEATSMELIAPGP

`COCCOCCOCCOCCOCCOCCOC(=O)N[C@H](COC)C(=O)NCc1ccccc1` [(2R) N-benzyl-2-carboxy mPEG6 amino-3-methoxy propionamide]: the IC50 in series [1] (setting [4]), in series [1] (setting [5]) and in series [1] (setting [6]) was above 300 µM in each case.

Regarding `COCCOCCOCCOCCOCCOCCOCCOC(=O)N[C@H](COC)C(=O)NCc1ccccc1` [(2R) N-benzyl-2-carboxy mPEG7 amino-3-methoxy propionamide], the IC50 in series [1] (setting [4]), in series [1] (setting [5]) and in series [1] (setting [6]) was above 300 µM in each case.

Consider `COCCOCCOCCOCCOCCOC(=O)N[C@H](COC)C(=O)NCc1ccccc1` [(2R) N-benzyl-2-carboxy mPEG5 amino-3-methoxy propionamide], for which the IC50 in series [1] (setting [4]), in series [1] (setting [5]) and in series [1] (setting [6]) was above 300 µM throughout. In series [2] (setting [7]), the “formalin-induced paw licking compared to saline, Phase 2” value was “showed a reduction”.

For the compound `COCCOCCOCCOCCOC(=O)N[C@H](COC)C(=O)NCc1ccccc1` [(2R) N-benzyl-2-carboxy mPEG4 amino-3-methoxy propionamide], the IC50 in series [1] (setting [4]), in series [1] (setting [5]) and in series [1] (setting [6]) was above 300 µM each time. For the same compound, the “formalin-induced paw licking compared to saline, Phase 2” value in series [2] (setting [7]) is listed as “showed a reduction”.

For `COC[C@@H](NC(C)=O)C(=O)NCc1ccccc1` [(R)—N-benzyl-2-acetamido-3-methoxy propionamide], the IC50 was above 300 µM in series [1] (IC50, type of block: 10 Hz, test pulse TP11 (frequency-dependent block at 10 Hz)); 278 µM in series [1] (IC50, type of block: Inactivated state, test pulse TP12 (inactivated state block)); above 300 µM in series [1] (IC50, type of block: Tonic, test pulse TP1 (tonic block), 5 min after test article addition). Besides, in series [2] (200 mg/kg PO, 30 min before formalin, Phase 1 (first five minutes), in words), the “formalin-induced paw licking time, Phase 1” value is on record as “greatest reduction”. Moreover, the mice sedated is reported as 5/7 in series [2] (Phase 1) and 6/7 in series [2] (Phase 2). Moreover, the “mice with splayed posture” value in series [2] (Phase 1) was 5/7; in series [2] (Phase 2), 7/7. For the same compound, the “formalin-induced paw licking compared to saline, Phase 2” value in series [2] (setting [7]) is listed as “greatest reduction”. Moreover, in series [3], the solubility in vehicle entry is “not readily soluble”.

Regarding `COCCOCCOCCOC(=O)N[C@H](COC)C(=O)NCc1ccccc1` [(2R) N-benzyl-2-carboxy mPEG3 amino-3-methoxy propionamide], the IC50 was above 300 µM in series [1] (setting [4]), above 300 µM in series [1] (setting [5]) and 239 µM in series [1] (setting [6]). Besides, in series [1], the “block of hNav1.8 channels in the inactivated state, potency relative to control (lacosamide)” value (shortened to “block … potency relative to control (lacosamide)”) is given as “potency comparable to control”. Besides, the “formalin-induced paw licking compared to saline, Phase 2” value in series [2] (setting [7]) was “showed a reduction”.

Consider `COCCOC(=O)N[C@H](COC)C(=O)NCc1ccccc1` [(2R) N-benzyl-2-carboxy mPEG1 amino-3-methoxy propionamide], for which the IC50 is above 300 µM in series [1] (setting [4]), above 300 µM in series [1] (setting [5]) and 267 µM in series [1] (setting [6]). The “block … potency relative to control (lacosamide)” value in series [1] is reported as “potency comparable to control”. Further, the solubility in vehicle entry in series [3] was “not readily soluble”.

`COCCOCCOC(=O)N[C@H](COC)C(=O)NCc1ccccc1` [(2R) N-benzyl-2-carboxy mPEG2 amino-3-methoxy propionamide]: the IC50 in series [1] (setting [4]) is above 300 µM; in series [1] (setting [5]) it was above 300 µM; in series [1] (setting [6]), 166 µM. Further, the “block … potency relative to control (lacosamide)” value in series [1] was “potency comparable to control”. In addition, the “formalin-induced paw licking compared to saline, Phase 2” value in series [2] (setting [7]) is given as “showed a reduction”.

On to `COCCOCCOCCOCCOCCOCCOCCOCCOCCOC(=O)N[C@H](COC)C(=O)NCc1ccccc1` [(2R) N-benzyl-2-carboxy mPEG9 amino-3-methoxy propionamide], for which the IC50 in series [1] (setting [4]), in series [1] (setting [5]) and in series [1] (setting [6]) was above 300 µM throughout.

Turning to `COCCOCCOCCOCCOCCOCCOCCOCCOC(=O)N[C@H](COC)C(=O)NCc1ccccc1` [(2R) N-benzyl-2-carboxy mPEG8 amino-3-methoxy propionamide], the IC50 in series [1] (setting [4]), in series [1] (setting [5]) and in series [1] (setting [6]) was above 300 µM in each case.

One may read the IC50 as the concentration needed to halve the response being measured.
